Laboratory results published in patent US7495024B2, “Phenylalkyl N-hydroxyureas for combating atherosclerotic plaque” (VIA Pharmaceuticals, Inc., priority 2006, dated 2009).

Assays:
[1] = tested on: ApoE-deficient mice; test: Gross pathological evaluation of aortas with developed atherosclerotic plaque (Example 2, FIG. 2); type: in vivo; conditions: 28-week old ApoE-deficient mice, 28 days
Excerpt: In Examples 1 and 2 knockout mice deficient in producing the protein Apolipoprotein E [apoE] were used. ApoE-deficient mice are known to spontaneously develop atherosclerotic plaque at 12-16 weeks, which process is accelerated by feeding the mice a high fat diet. Because the atherosclerotic lesions found in these mice are histologically similar to those found in humans, the ApoE-deficient mice are used as a model for assessing the effects of a drug on atherosclerotic plaque in humans.
Four week old female ApoE-deficient knockout mice were fed a high-fat diet set forth in Example 1 for a period of 24 weeks to allow atherosclerotic plaque to build-up. […]
The entire treatment was carried out by administering the vehicle or the dosage to the mice once a day for 28 days. […] At terminal sacrifice, aortas were harvested from 16 mice in each of the treatment groups and grossly evaluated, selected tissue from the remaining 4 mice per group were evaluated grossly and fixed and processed for histopathological analysis and quantitative determination of plaque burden. […]

[2] = tested on: patients with carotid stenosis undergoing elective carotid endarterectomy; test: Randomized, double blind, placebo-controlled study in patients with carotid stenosis undergoing carotid endarterectomy (Example 4); type: in vivo, human; conditions: 100 mg daily oral
Method: In this randomized, double blind, placebo-controlled study, groups of 40 clinically stable patients between the age of 30 and 80 years with carotid stenosis undergoing elective carotid endarterectomy are treated by orally administering 100 mg of Compound X or placebo. A total of 80 patients are enrolled. Baseline assessments are performed at the start of treatment and these baseline results are compared with repeat assessments during various follow-up periods of treatment. The treatment is conducted for at least twelve weeks at which time these baseline assessments are performed and compared. […]
Plaque samples are obtained from patients following carotid endarterectomy surgery and the samples are analyzed to determine the level of plaque tissue inflammation. […]
The co-primary efficacy variables are: the change from baseline in ex vivo plaque LTB4 synthesis in whole blood and in ex vivo plaque LTB4 concentration after 12 weeks of administration of study medication. […] The significance of the difference between the groups with respect to the ex vivo plaque LTB4 concentrations is assessed by a t-test. […]
The secondary outcome measures of percent macrophage sectional area and number of T lymphocytes in plaque are analyzed using t-tests at the 0.05 alpha level (two sided). […]

**Q.** Which “atherosclerotic lesions in the proximal aorta, aortic arch, thoracic and abdominal aorta (gross pathological score)” value ([1]; 10 mg/kg/day or 50 mg/kg/day oral, vs vehicle) does the source give for `CC(C#Cc1ccc(Cc2ccc(F)cc2)s1)N(O)C(N)=O` (stereo not shown) [compound X, N-[3-[5-[(4-fluorophenyl)methyl]-2-thienyl]-1-methyl-2-propynyl]-N-hydroxyurea] here?
**A.** substantial reduction of atherosclerotic lesions

**Q.** What about the “plaque burden in the proximal aorta and aortic arch compared to vehicle” value ([1]; 10 and 50 mg/kg/day oral) of the same compound?
**A.** statistically significant reductions in plaque burden

**Q.** What about the “number of ischemic lesions after carotid endarterectomy by brain MRI using DWI, vs placebo group” value ([2]; 12 weeks) of the same compound?
**A.** reduction in the number of ischemic lesions

**Q.** What about the “level of biomarkers and plaque tissue inflammation, percentage of patients vs placebo group” value ([2]; 12 weeks of dosing) of the same compound?
**A.** reduction in the level of biomarkers and plaque tissue inflammation
